# Experimental data taken from patent publication US20250388597A1, “BIFUNCTIONAL PHOTOCROSSLINKING PROBES FOR COVALENT CAPTURE OF PROTEIN-NUCLEIC ACID COMPLEXES IN CELLS” (UNIVERSITY OF SOUTHERN CALIFORNIA, priority 2022, published 2025).
# Target: T1, MEF2A/DNA complex (Homo sapiens, UniProt Q02078)
# T1 construct: human MEF2A DBD (residues 2-95); made in house
# T1 sequence (Q02078 2-95): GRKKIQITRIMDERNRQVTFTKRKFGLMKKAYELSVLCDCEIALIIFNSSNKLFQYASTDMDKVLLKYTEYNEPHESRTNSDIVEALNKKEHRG
# Test: In vitro photo-crosslinking of assembled MEF2/DNA complex, read on denaturing SDS/urea gel or agarose gel
# Assay type: biochemical
# Conditions: for formation of covalent MEF2/DNA crosslinked complex: probe + UV, denaturing gel
# Text: In vitro assays have confirmed the success and the efficiency of the demo probe (AMT-LC-SDA) in crosslinking double strand DNA of various contents and DNA-binding protein human myocyte enhancer factor 2A (MEF2A) (1-95 aa) (FIG. 5C-FIG. 5E). The solid crosslinking is confirmed for the probe with UV photo crosslinking conditions by denaturing or digestive approaches such as running with 8.3 M urea gel, SDS gel, combined with sample with overnight digestion of proteinase K at 65 Celsius and denatured at high temperature of 95 Celsius with SDS loading dye. […] Under these harsh evaluation conditions, the protein got digested on the crosslinking complex thoroughly, yet the remaining crosslinked amino acids residuals still have made the DNA to be in a larger size and shifted clearly compared to other controls, which is indicated by the bold shaped arrow. Agarose gel was also used for its bigger pore size to estimate the crosslinking efficiency (UV 2 hrs), estimated by the amount of the left free DNA, our probe has reached around 30-60% efficiency (FIG. 5E), which is much higher than the UV-initiated protein DNA crosslinking without the use of a probe (10-20%) as reported in Nature Communications, volume 11, Article number: 3019 (2020). […] This further supports the idea of applying this probe for replacement of formaldehyde, it crosslinks the protein only within the proximity of nucleic acids, thereby largely reducing the random protein-protein crosslinking noise and helps to preserve the native state of protein epitopes.
# The BFPX probe 4AMT-LC-SDA was synthesized with good yield by the NHS-amine chemistry using psoralen and diazirine derivatives (FIG. 5A, FIG. 5B). To test its photo crosslinking ability, human transcription factor MEF2A (the MADS-box/MEF2 domain) and double strand DNA containing a MEF2 binding site were used. We first used electrophoresis mobility shift assay (EMSA) to validate the activity of the purified recombinant MEF2A DNA-binding domain. After finding out the optimal protein to DNA ratio, the in vitro assembled MEF2/DNA complex was then subject to photocrosslinking in the presence or absence of the 4AMT-LC-SDA probe with or without UV illumination. Multiple other control experiments were carried out in parallel to test the specificity of photocrosslinking between the DNA and MEF2. Specifically, parameters such as protein/DNA amounts (1:[…]), ratio, UV time (10 m to 4 hrs), wavelength (320 to 360 nm), LV source (mercury long lamp, LED) and their distance to the reaction mixture have been optimized along the course. The MEF2 Protein and DNA were incubated first to mimic an in vivo binding mode and stoichiometry, and then the mixture was incubated with our 4AMT-LC-SDA probe to undergo UV illumination. The results were evaluated by running denaturing gels (SDS in FIG. 5D, or Urea in FIG. 5C) against the high temperature denatured reaction mixtures and checking the respective protein (silver stain) or DNA (FAM label) signals. To further rule out any other possible false positiveness during loading, proteinase K digestion was applied to all the samples including the negative controls with SDS at 65 degrees.
"crosslinking efficiency based on the DNA signal (MEF2/DNA, FIG. 8C lane 3 (10 μM probe) vs lane 1)","low probe concentration at which a significant amount of crosslinked protein complex was observed (MEF2/DNA, FIG. 7 lane 7, UV 365 nm)","crosslinking efficiency (percentage of native protein-DNA complex being covalently crosslinked) (MEF2/DNA, FIG. 7 lane 5 (12.5 μM probe) vs lanes 1-3, free DNA FAM signal, UV 365 nm)","UV illumination time at which crosslinked complex was visible (MEF2/DNA, probe 100 μM)","UV illumination time at which crosslinking reached plateau (MEF2/DNA, probe 100 μM, plateau around 100 seconds and 5 min time points)",Structure (SMILES),formation of covalent MEF2/DNA crosslinked complex
more than 90%,–,–,–,–,C#CCCC1(CCNC(=O)CCOCCOCCOCCC(=O)NCCNC(=O)CCCOc2c3occc3cc3ccc(=O)oc23)N=N1 [SPB-PEG3-AAD],highly efficient crosslinking
–,0.125 µM,80-90%,3 s,around 100 seconds,"C#CCCC1(CCNC(=O)CCCOc2c3occc3cc3ccc(=O)oc23)N=N1 [SPB-AAD, N-(2-(3-(but-3-yn-1-yl)-3H-diazirin-3-yl)ethyl)-4-((7-oxo-7H-furo[3,2-g]chromen-9-yl)oxy)butanamide]",formation of complexes that run as larger molecular species than both free protein and DNA
